How the values were obtained:
Format in all cases: cell-based, human
NK cells [1] = experiment: ADCC: NK cells with RAJI cells coated with Rituximab or Ofatumumab; details: Rituximab 0.5 μg/mL or Ofatumumab 0.05 μg/mL, E:T 9:1
Experimental: Lymphocytes were isolated and pre-treated when indicated, with compound and H2O2, as described above. For degranulation/measuring CD107a expression, NK cells were co-cultured with K562 tumour cells at an effector target ratio 1:1 in the presence of anti-CD107a in U-bottom plates. After 2 h, GolgiStop™ and GolgiPlug™ (BD Bioscience) were added and cells were harvested after an additional 4 h co-culture and stained for CD56 and CD3, as described above. For positive control, 25 ng/ml PMA (Sigma Aldrich) and 500 ng/mL Ionomycin (Sigma Aldrich) were added.
(§1) For cytotoxic assay, a standard 4 h [Cr^51]-release assay was used. Briefly, tumour cells were harvested and labeled with 51Cr (PerkinElmer) and used as target cells. Effector cells, NK cells and T cells, were co-cultured in 96-well V-bottom plate with indicated tumour cells at the stated effector target ratio (E:T). The supernatant was collected onto LUMA plates (Perkin-Elmer) and radioactivity/tumour cell lysis was detected by MicroBeta2 (Perkin Elmer). Target cell killing measured by % specific lysis and calculated using the formula: ((experimental release-spontaneous release)/(maximum release-spontaneous release))*100.
For analyzing ADCC, NK cells were cultured with RAJI cells and Rituximab (0.5 μg/mL, MabThera, Roche) or Ofatumumab (0.05 μg/mL, Arzerra, Novartis).

NK cells [2] = experiment: [Cr51]-release assay: lysis of tumour target cells by pre-treated NK cells after H2O2 exposure; details: for Lysis of K562 target cells by pre-treated NK cells after H2O2 exposure: 18 h pre-treatment, H2O2 1 h up to 250 μM, E:T 9:1, vs control NK cells; for Suppressive effect of H2O2 on lymphocyte function (killing, degranulation, IFNγ): expanded NK cells and patient derived TIL, pre-treatment; for Dependence of the protective effect on Nrf2 activation: qPCR of Nrf2 target genes and K562 lysis with/without Nrf2 inhibitor ML385
Source text: Peripheral blood samples (anonymized by-products of blood donations from healthy adult donors) were purchased from Karolinska University Hospital Blood Bank. Peripheral blood mononuclear cells (PBMC) were isolated from healthy donor buffy coats using density centrifugation with Ficoll® Paque Plus (GE Healthcare). NK cells and CD14^+ monocytes were isolated from PBMCs using NK cell isolation kit or CD14^+ microbeads, respectively (both Miltenyi Biotec), following the manufacturer's instructions. For NK cell expansion, a EBV-LCL feeder cell line was used, irradiated at 100 gy and then co-cultured with NK cells, at the ratio 10:1 LCL:NK, in X-Vivo 20 (Lonza) supplemented with 10% human AB serum and 1000 U/mL IL-2 (Proleukin). From day 6 or 10, NK cells were kept at 0.5×10^6 cells/mL or 1×10^6/mL, respectively. Purity of expanded NK cell was assessed at day 10 by flow cytometry, see below.
Lymphocytes were pre-treated for 18 h with Auranofin (AUF, with the concentration 1 μg/mL for NK cells and 0.5 μg/mL for TIL, if not indicated differently), DL-Sulforaphane (SUL) or Dimethyl Fumarate (DMF) (all Sigma-Aldrich) at indicated concentrations.
(§2) For Nrf2 inhibition, NK cells were treated with 50 μM ML-385 (Sigma-Aldrich) in parallel. For H2O2 treatment, lymphocyte cells were washed and resuspended to 1×10^6 cells/mL in medium and exposed to indicated H2O2 (Sigma-Aldrich) concentration for 1 h at 37° C. Cells were washed with medium and then used for further experiments. For monocyte experiments, autologous NK cell-monocytes or TIL-monocytes were used. NK cells/TIL were isolated and pre-treated with 0.5 μg/mL AUF, as described above, and co-cultured with unstimulated at the ratio, 1:2 M:NK, or stimulated monocytes at the ratio, 1:1 M:NK, if not indicated otherwise. Stimulated monocytes were activated with 100 ng/ml PMA for 1 min, washed and added at indicated ratio, the number of NK cell/TIL was kept constant. As control, H2O2 was used at indicated concentration. Cells were co-cultured for 2 h and then effector cells were stained for intracellular ROS (see flow cytometry) or used as effector cells in Cr^51 release assay (E:T ratio 10:1).
as §1
Lymphocytes were pre-treated for 18 h with Auranofin (AUF, with the concentration 1 μg/mL for NK cells and 0.5 μg/mL for TIL. As AUF was reconstituted in DMSO, control NK cells were pre-treated with DMSO with an equivalent volume to the highest compound concentration. For N-acetylcysteine (NAC, Invitrogen) treatment, DMSO pre-treated cells were incubated for 1 h with 5 or 10 mM NAC prior to H2O2 treatment. For H2O2 treatment, lymphocytes were washed and resuspended to 1×10^6 cells/mL in RPMI containing the indicated H2O2 (Sigma-Aldrich) concentration for 1 h at 37° C. 5% CO2. Cells were washed with medium and then used for further experiments.

[3] = tested on: Nrf2 target genes (NQO1, HMOX1, TXNRD1, Keap1); experiment: qPCR of classical Nrf2 target genes in NK cells; details: kinetic, fold change vs untreated
Experimental: Lymphocytes were pre-treated with AUF, SUL or DMF as described above. RNA was isolated using TRIzol™ Plus RNA Purification Kit (Invitrogen). cDNA was generated using the iScript™ cDNA Synthesis Kit (Bio-Rad) and qPCR was done using iTaq™ Universal SYBR® Green Supermix (Bio-Rad) in the CFX96 Touch Real-Time PCR Detection System (Bio-Rad). Fold change expression from untreated cells was calculated using the 2^-ΔΔCt formula with b-actin as reference gene. Evaluated genes were NAD(P)H Quinone Dehydrogenase 1 (NQO1), Kelch Like ECH Associated Protein 1 (Keap1), Heme Oxygenase 1 (HMOX1) and Thioredoxin Reductase 1 (TXNRD1).

[4] = tested on: tumour infiltrating lymphocytes (TIL); experiment: IFNγ release by pre-treated TIL on autologous tumour cells after H2O2 treatment; details: KADA and ANRU melanoma TIL, E:T 4:1, vs control group
Experimental: ., 2020). […] For Nrf2 inhibition, NK cells were treated with 50 μM ML-385 (Sigma-Aldrich) in parallel. […] Cells were washed with medium and then used for further experiments. For monocyte experiments, autologous NK cell-monocytes or TIL-monocytes were used. […] Stimulated monocytes were activated with 100 ng/ml PMA for 1 min, washed and added at indicated ratio, the number of NK cell/TIL was kept constant. […] For cytokine release assay, NK cells and TIL were cultured with indicated tumour cells at the effector target ratio 4:1 (E:T) for 24 h in U-bottom plates. IFNγ secretion was measured using human IFN-γ ELISA development kit (Mabtech) following the manufacturer's instructions.

NK cells [5] = experiment: NK cells co-cultured with PMA-activated autologous monocytes: intracellular ROS and K562 lysis; details: 100 U/mL catalase; intracellular ROS and K562 lysis
Experimental: as §2
Monocytes were stimulated with 100 ng/ml PMA for 1 min and washed with HBSS (Gibco). Cells were resuspended in HBSS 5% FBS and added to a 96-well Optiplate (Perkin Elmer) containing HBSS 5% FBS and Luminol (56 μM; Sigma). Luminescence was measured immediately using a EnSpire plate reader (Perkin Elmer).
For detection of intracellular ROS levels, for NK cells CellROX™ Deep Red Reagent (Invitrogen) were used. Briefly, NK cells were stained with 2.5 μM CellROX solution in RPMI for 30 min at 37° C. and then stained for flow cytometry with anti-CD56 and anti-CD3 (both Biolegend).
as §1

Ofatumumab: antibody therapy targeting CD20
Recognition of antibody-coated RAJI cells by NK cells (killing and CD107a degranulation) (NK cells [1]): efficient recognition of the target cells

C[S+]([O-])CCCCN=C=S (racemic) [SUL, 1-Isothiocyanato-4-(methanesulfinyl)butane]
Lysis of K562 target cells by pre-treated NK cells after H2O2 exposure (NK cells [2]): comparable protective effects as AUF | Suppressive effect of H2O2 on lymphocyte function (killing, degranulation, IFNγ) (NK cells [2]): counteracts the suppressive effect of H2O2 on lymphocyte function | Dependence of the protective effect on Nrf2 activation (NK cells [2]): dependent on Nrf2 activation | Influence on Nrf2 target genes in NK cells compared with AUF [3]: comparable influence | Recognition of autologous tumour cells by TIL (IFNγ production) upon exposure to H2O2 [4]: increased recognition of their autologous tumour cells

CC(=O)N[C@@H](CS)C(=O)O [NAC, N-acetylcysteine]
Protection of K562 lysis by control NK cells pre-treated with NAC, compared to AUF (NK cells [2]; 1 h, 5 or 10 mM NAC, increased H2O2 concentrations): less protection

COC(=O)/C=C/C(=O)OC [DMF, Dimethyl (E)-butenedioate]
Lysis of K562 target cells by pre-treated NK cells after H2O2 exposure (NK cells [2]): comparable protective effects as AUF | Suppressive effect of H2O2 on lymphocyte function (killing, degranulation, IFNγ) (NK cells [2]): counteracts the suppressive effect of H2O2 on lymphocyte function | Dependence of the protective effect on Nrf2 activation (NK cells [2]): dependent on Nrf2 activation | Influence on Nrf2 target genes in NK cells compared with AUF [3]: comparable influence | Recognition of autologous tumour cells by TIL (IFNγ production) upon exposure to H2O2 [4]: increased recognition of their autologous tumour cells

Cc1ccccc1C(=O)N1CCc2cc(-c3nc(NC(=O)Cc4ccc5c(c4)OCO5)sc3C)ccc21 [ML385]
Effect of ML385 on K562 lysis by DMSO pre-treated control NK cells (NK cells [2]; 50 μM ML385): no effects | Lysis of K562 by NK cells pre-treated with AUF, SUL or DMF in combination with ML385 (NK cells [2]; 50 μM ML385, cells exposed to H2O2): significantly reduced

Rituximab: antibody therapy targeting CD20
Recognition of antibody-coated RAJI cells by NK cells (killing and CD107a degranulation) (NK cells [1]): efficient recognition of the target cells

B1: catalase: an enzyme efficiently converting H2O2 to H2O and O2 (protein, UniProt P04040 2-527, looked up)
Catalase: ADSRDPASDQMQHWKEQRAAQKADVLTTGAGNPVGDKLNVITVGPRGPLLVQDVVFTDEMAHFDRERIPERVVHAKGAGAFGYFEVTHDITKYSKAKVFEHIGKKTPIAVRFSTVAGESGSADTVRDPRGFAVKFYTEDGNWDLVGNNTPIFFIRDPILFPSFIHSQKRNPQTHLKDPDMVWDFWSLRPESLHQVSFLFSDRGIPDGHRHMNGYGSHTFKLVNANGEAVYCKFHYKTDQGIKNLSVEDAARLSQEDPDYGIRDLFNAIATGKYPSWTFYIQVMTFNQAETFPFNPFDLTKVWPHKDYPLIPVGKLVLNRNPVNYFAEVEQIAFDPSNMPPGIEASPDKMLQGRLFAYPDTHRHRLGPNYLHIPVNCPYRARVANYQRDGPMCMQDNQGGAPNYYPNSFGAPEQQPSALEHSIQYSGEVRRFNTANDDNVTQVRAFYVNVLNEEQRKRLCENIAGHLKDAQIFIQKKAVKNFTEVHPDYGSHIQALLDKYNAEKPKNAIHTFVQSGSHLAAREKANL
Lysis of K562 target cells by control NK cells with catalase added before H2O2 (NK cells [2]; catalase added to control NK cells before incubation with H2O2): improve the function of the control NK cells in a comparable way to AUF pre-treatment | Difference between activated monocytes or H2O2 treated control NK cells in the presence of catalase (NK cells [5]): no difference

— patent US20240277767A1, “METHODS AND USES” (PROLEUKOCYTE AB, priority 2021, published 2024)
